Where a name gives a salt, the structure may show the parent alone.
Key:
SSAO [1] = target: T1, SSAO (Rattus norvegicus, UniProt O08590); assay: In vitro inhibition of SSAO activity, radiolabeled benzylamine procedure (rat lung homogenate); format: biochemical
T1 construct: SSAO activity in 100 ul of lung homogenate was determined radiochemically; from tissue; host or cells: rat lung homogenate (1000 g supernatant)
T1 sequence (O08590 1-763): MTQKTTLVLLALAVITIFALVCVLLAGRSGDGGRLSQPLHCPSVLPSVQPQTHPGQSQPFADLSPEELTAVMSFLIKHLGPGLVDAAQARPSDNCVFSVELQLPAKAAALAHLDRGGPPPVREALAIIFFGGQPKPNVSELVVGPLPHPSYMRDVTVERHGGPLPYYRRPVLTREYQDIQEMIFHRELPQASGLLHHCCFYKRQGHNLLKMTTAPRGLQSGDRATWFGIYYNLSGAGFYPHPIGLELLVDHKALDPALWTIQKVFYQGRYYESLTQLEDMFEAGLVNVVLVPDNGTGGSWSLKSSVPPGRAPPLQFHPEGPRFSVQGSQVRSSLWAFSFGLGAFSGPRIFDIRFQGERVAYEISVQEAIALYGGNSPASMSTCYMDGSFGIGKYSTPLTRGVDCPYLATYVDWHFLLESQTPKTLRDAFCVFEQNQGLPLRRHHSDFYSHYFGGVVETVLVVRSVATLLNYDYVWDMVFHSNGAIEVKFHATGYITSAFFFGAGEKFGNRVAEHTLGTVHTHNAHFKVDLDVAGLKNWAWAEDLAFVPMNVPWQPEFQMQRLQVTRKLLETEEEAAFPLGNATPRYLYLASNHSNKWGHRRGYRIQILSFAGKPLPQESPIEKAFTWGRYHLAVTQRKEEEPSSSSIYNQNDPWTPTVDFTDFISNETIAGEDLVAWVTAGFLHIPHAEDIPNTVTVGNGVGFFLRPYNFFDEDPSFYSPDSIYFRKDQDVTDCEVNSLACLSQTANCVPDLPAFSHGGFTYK

C57BL/6 mice = assay: Experimental autoimmune encephalomyelitis (EAE) in mice; format: in vivo; conditions: for EAE development after stopping treatment: after last treatment (d19-25)
Procedure: Thirty female C57BL/6 mice were immunized subcutaneously (s,c) with myelin oligodendrocyte glycoprotein 35-55 (MOG peptide 35-55) in Complete Freund Adjuvant (CFA) on day 0, followed by i.p. injections of pertussis toxin (one pertussis toxin injection on day 0, a second pertussis toxin injection on day 2). Groups of 10 mice received either the allylamine Compound mofegiline (M1, 10 mg/kg/dose, twice daily for 18 consecutive days), methotrexate (MTX, 2.5 mg/kg/day, every other day (Mon., Weds., Fri.) till day 18) or vehicle control (twice/day for 18 consecutive days) all starting from one day after the immunization and all administered i.p. Then animals were monitored for body weight, signs of paralysis and death according to a 0-5 scale of scoring system as follows; 1=limp tail or waddling gait with tail tonicity; 2=waddling gait with limp tail (ataxia); 2.5=ataxia with partial limb paralysis; 3=full paralysis of one limb; 3.5=full paralysis of one limb with partial paralysis of second limb; 4=full paralysis of two limbs; 4.5=moribund; 5=death. Results are shown in FIG. 1A, FIG. 1B, and FIG. 1C. […] (p=0.04 by repeated measure analysis to assess the treatment effect. Proper polynomial transformation, with the spacing corresponding to the collection days, was applied to test the time effect). Statistically significant differences in diseases severity between the M1 and vehicle-treated groups, continued even after stopping compound administration and were observed until the end of the study (d25).

SSAO [2] = target: T1, SSAO; assay: In vitro inhibition of SSAO activity, radiolabeled benzylamine procedure (rat lung homogenate); format: biochemical
Procedure: SSAO activity was also measured as described (Lizcano J M. Et al. (1998) Biochem J. 331:69). Briefly, rat lung homogenates were prepared by chopping the freshly removed tissue into small pieces and washing them thoroughly in PBS. The tissue was then homogenized 1:10 (w/v) in 10 mM potassium phosphate buffer (pH 7.8) and centrifuged at 1000 g at 4° C. for 10 minutes; the supernatant was kept frozen until ready to use. SSAO activity in 100 ul of lung homogenate was determined radiochemically using 20 uM ^14C-benzylamine as substrate. The reaction was carried out at 37° C. in a final volume of 300 ul of 50 mM potassium phosphate buffer (pH 7.2) and stopped with 100 ul of 2 M citric acid. Radioactively labeled products were extracted into; toluene/ethyl acetate (1:1, v/v) containing 0.6% (w/v) 2,5-diphenyloxdazole (PPO) before liquid scintillation counting.

human MAO-A = target: T2, human MAO-A (Homo sapiens, UniProt P21397); assay: Inhibition of MAO-A activity, coupled colorimetric assay; format: biochemical; conditions: recombinant human MAO-A, tyramine substrate
T2 construct: purchased BD Biosciences (MA, USA)
T2 sequence (P21397 1-527): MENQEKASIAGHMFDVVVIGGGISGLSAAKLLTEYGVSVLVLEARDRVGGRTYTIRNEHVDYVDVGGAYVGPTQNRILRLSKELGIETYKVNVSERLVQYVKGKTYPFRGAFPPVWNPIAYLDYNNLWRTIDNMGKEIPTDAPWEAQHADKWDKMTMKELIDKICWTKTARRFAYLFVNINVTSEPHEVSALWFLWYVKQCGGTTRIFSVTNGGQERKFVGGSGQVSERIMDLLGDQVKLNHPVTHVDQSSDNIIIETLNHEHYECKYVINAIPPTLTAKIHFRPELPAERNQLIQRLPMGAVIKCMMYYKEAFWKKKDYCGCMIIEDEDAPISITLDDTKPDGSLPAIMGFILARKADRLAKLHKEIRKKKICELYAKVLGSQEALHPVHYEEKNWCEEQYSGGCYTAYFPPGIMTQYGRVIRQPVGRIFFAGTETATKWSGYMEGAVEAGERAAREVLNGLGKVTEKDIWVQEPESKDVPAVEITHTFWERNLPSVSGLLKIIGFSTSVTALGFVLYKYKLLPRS
Procedure: (§1) The specificity of the different SSAO inhibitors was tested by determining their ability to inhibit MAO-A and MAO-B activities in vitro. Recombinant human MAO-A and human MAO-B enzymes were obtained from BD Biosciences (MA, USA). MAO activities were measured in a similar way as for SSAO except that no pre-incubation with inhibitor or substrate was performed. A pre-determined amount of inhibitor diluted in 0.2 M potassium phosphate buffer, pH 7.6, was added to each well, if required. The amount of inhibitor varied in each assay but was generally at a final concentration of between 50 nM and 1 mM. Controls lacked inhibitor. The following agents were then added to a final reaction volume of 200 μl in 0.2 M potassium phosphate buffer, pH 7.6: 0.04 mg/ml of MAO-A or 0.07 mg/ml MAO-B enzyme, 15 μl of 10 mM tyramine substrate (for MAO-A), or 15 μl 100 mM benzylamine substrate (for MAO-B), and 50 μl of freshly made chromogenic solution (as above). The plates were incubated for 60 min at 37° C. The increase in absorbance, reflecting MAO activity, was measured at 490 nm using microplate spectrophotometer (Power Wave 40, Bio-Tek Inst.). Inhibition was determined as percent inhibition compared to control after correcting for background absorbance and IC50 values, and was calculated using. GraphPad Prism software. […]

human MAO-B = target: T3, human MAO-B (Homo sapiens, UniProt P27338); assay: Inhibition of MAO-B activity, coupled colorimetric assay; format: biochemical; conditions: recombinant human MAO-B, benzylamine substrate
T3 construct: purchased BD Biosciences (MA, USA)
T3 sequence (P27338 1-520): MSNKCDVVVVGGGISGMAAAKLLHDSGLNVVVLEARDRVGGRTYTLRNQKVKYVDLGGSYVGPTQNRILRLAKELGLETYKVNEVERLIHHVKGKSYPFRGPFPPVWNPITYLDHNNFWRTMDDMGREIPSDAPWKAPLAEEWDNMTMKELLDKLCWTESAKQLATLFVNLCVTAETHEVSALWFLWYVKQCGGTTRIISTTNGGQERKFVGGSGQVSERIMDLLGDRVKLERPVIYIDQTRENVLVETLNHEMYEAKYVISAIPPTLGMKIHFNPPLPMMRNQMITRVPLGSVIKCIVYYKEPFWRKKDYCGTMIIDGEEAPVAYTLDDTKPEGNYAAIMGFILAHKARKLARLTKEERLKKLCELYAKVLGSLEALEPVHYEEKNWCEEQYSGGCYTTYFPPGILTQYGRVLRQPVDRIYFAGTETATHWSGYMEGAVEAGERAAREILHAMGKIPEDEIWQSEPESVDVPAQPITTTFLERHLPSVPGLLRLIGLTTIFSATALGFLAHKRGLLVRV
Procedure: as §1

[3] = Table I, compounds of formula X
[4] = Table II, compounds of formula III

**Q.** With `C#CC(N)CCCc1ccc(OC)cc1` (stereo not shown) (as salt: hydrochloride) as the molecule, how does the melting point read?
**A.** Its melting point is 175 °C (dec.).

**Q.** For `NCC(=O)NCc1ccc(F)cc1` (as salt: hydrochloride) [LJP 1334, 2-amino-N-(4-fluorobenzyl)acetamide], which melting point is on record?
**A.** The melting point was 114 to 115 °C.

**Q.** Which melting point does the source give for `NCC(=O)NCc1cc(F)cc(C(F)(F)F)c1` (as salt: trifluoroacetate) [LJP 1383, 2-amino-N-(3-fluoro-5-trifluoromethylbenzyl)acetamide trifluoroacetate] here?
**A.** The melting point was 189.5 to 190.5 °C.

**Q.** With `NC/C=C(/Cc1ccccc1)C(F)(F)F` [Example 3, 3-benzyl-4,4,4-trifluoro-but-2-enylamine] as the molecule, how does the melting point read?
**A.** The melting point was 170 °C (dec.).

**Q.** With `COc1ccc(CCCC(N)c2ccc(F)c(F)c2)cc1` (stereo not shown) [Example 3D, 1-(3,4-difluorophenyl)-4-(4-methoxyphenyl)-butylamine] as the molecule, how does the melting point read?
**A.** Its melting point is 200 °C (dec.).

**Q.** Which melting point does the source give for `C=CC(N)CCCc1ccccc1` (stereo not shown) [Example 3E, 1-(3-phenyl-propyl)-allylamine] here?
**A.** Its melting point is 143 to 144 °C.

**Q.** With `NCC(=O)NCc1cccnc1` [LJP 1356, 2-amino-N-pyridin-3-ylmethylacetamide] as the molecule, how does the melting point read?
**A.** The melting point was 87 to 88 °C.

**Q.** With `COc1cccc(CCC2=CCNC2)c1.Cl` [LJP 1368, 3-[2-(3-methoxyphenyl)ethyl]-3-pyrroline hydrochloride] as the molecule, how does the “reversibility of inhibition of SSAO enzyme activity” value (SSAO [1]) read?
**A.** The value was “irreversible”.

**Q.** For `CN(Cc1cnc2nc(N)nc(N)c2n1)c1ccc(C(=O)N[C@@H](CCC(=O)O)C(=O)O)cc1` [MTX, methotrexate], which “EAE development after stopping treatment” value (C57BL/6 mice) is on record?
**A.** Its value is “a rise in disease incidence and severity was observed right after stopping the MTX treatment”.

**Q.** For `NCC(=O)NCc1ccc(F)cc1` [compound 1334], which IC50 (SSAO [2]; [3]) is on record?
**A.** The IC50 was 2.4 µM.

**Q.** For `NCC(=O)NCc1cccnc1` [compound 1356], which IC50 (SSAO [2]; [3]) is on record?
**A.** Its IC50 is 0.7 µM.

**Q.** For `Fc1cccc(CCC2=CCNC2)c1` [compound 1367], which IC50 (SSAO [2]; [4]) is on record?
**A.** Its IC50 is 2.4 µM.

**Q.** What does the source list for `COc1cccc(CCC2=CCNC2)c1` [compound 1368]?
**A.** IC50 (SSAO [2]; [4]): 0.5 µM; IC50 (human MAO-A): > 1000 µM; IC50 (human MAO-B): > 1000 µM

**Q.** For `NCC(=O)NCc1cc(F)cc(C(F)(F)F)c1` [compound 1383], which IC50 (SSAO [2]; [3]) is on record?
**A.** The IC50 was 0.033 µM.

**Q.** What about the melting point of the same molecule?
**A.** The melting point was 189.5 to 190 °C.

**Q.** What about the IC50 (human MAO-A) of the same molecule?
**A.** The IC50 was greater than 1300 µM.

**Q.** What about the IC50 (human MAO-B) of the same molecule?
**A.** Its IC50 is greater than 1300 µM.

**Q.** For `Fc1ccc(OCC2=CCCNC2)cc1` [compound 1395], which inhibition at 10 µM (SSAO [2]; Table II) is on record?
**A.** Its inhibition at 10 µM is 56%.

**Q.** With `COc1ccc(CCC2=CCNC2)cc1` [compound 1396] as the molecule, how does the IC50 (SSAO [2]; [4]) read?
**A.** Its IC50 is 2.1 µM.

**Q.** Which inhibition at 9 µM (SSAO [2]; Table II) does the source give for `COc1ccc(OCC2=CCCNC2)cc1OC` [compound 1397] here?
**A.** The inhibition at 9 µM was 54%.

**Q.** With `Fc1cccc(OCC2=CCCNC2)c1` [compound 1398] as the molecule, how does the inhibition at 10 µM (SSAO [2]; Table II) read?
**A.** The inhibition at 10 µM was 61%.

**Q.** With `COc1cccc(OCC2=CCCNC2)c1` [compound 1401] as the molecule, how does the inhibition at 10 µM (SSAO [2]; Table II) read?
**A.** The inhibition at 10 µM was 74%.

**Q.** With `Fc1ccc(CCC2=CCNC2)cc1` [compound 1402] as the molecule, how does the IC50 (SSAO [2]; [4]) read?
**A.** The IC50 was 1.83 µM.

**Q.** With `COc1ccc(OCC2=CCCNC2)cc1` [compound 1404] as the molecule, how does the inhibition at 10 µM (SSAO [2]; Table II) read?
**A.** Its inhibition at 10 µM is 63%.

**Q.** For `COc1ccc(CCC2=CCNC2)cc1OC` [compound 1427], which inhibition at 9 µM (SSAO [2]; Table II) is on record?
**A.** Its inhibition at 9 µM is 50%.

**Q.** What does the source list for `NC/C(=C/F)CCc1ccc(F)cc1` [mofegiline]?
**A.** EAE development after stopping treatment (C57BL/6 mice): continuously observed for at least one more week after the last treatment; disease (clinical) severity, EAE development (C57BL/6 mice; dosing period d0-18, i.p., mofegiline 10 mg/kg/dose twice daily, MTX 2.5 mg/kg/day every other day): statistically significant reduction of disease seventy; disease incidence (mice affected) (C57BL/6 mice; dosing period up to day 18, 10 mg/kg/dose i.p. twice daily): 50%; body weight (C57BL/6 mice; dosing period, 10 mg/kg/dose i.p. twice daily): prevented body weight loss
